Reference: patent publication US10934311B2, “Heterocyclic compound used as FGFR inhibitor” (Hangzhou Innogate Pharma Co., Ltd., priority 2016, dated 2021)

Columns and labels:
FGFR1 = FGFR1 (Homo sapiens, UniProt P11362); test: FGFR1 kinase activity inhibition (Caliper mobility shift assay); type: biochemical; details: read-out: FGFR kinase activity inhibition (IC50, nM) FGFR1
Method: (§1) 1. FGFR1, FGFR2, FGFR3, and FGFR4 Kinase Activity Inhibition Experiments The FGFR1, FGFR2, FGFR3, and FGFR4 protein kinase activities were measured using the Caliper mobility shift assay. Compounds were solubilized in DMSO and diluted in kinase buffer. 5 µL of compound at 5 times final concentration (10% DMSO) was added to a 384-well plate. 10 μL of a 2.5-fold enzyme (FGFR1, FGFR2, FGFR3, and FGFR4, respectively) solution was added and incubated at room temperature for 10 minutes, followed by the addition of […] of a 2.5-fold substrate (FAM-labeled peptide and ATP) solution. The reaction was incubated for 30-60 minutes at 28° C., then stopped by adding 25 μL of stop solution (pH 7.5 100 mM HEPES, 0.015% Brij-35, 0.2% Coating Reagent #3, 50 mM EDTA). Conversion data was read on the Caliper EZ Reader II (Caliper Life Sciences). The conversion rate was converted into inhibition rate (% inhibition rate=(max−sample conversion rate)/(max−min)*100). Where max refers to the conversion of the DMSO control and min refers to the conversion of the non-enzymatic live control. With the compound concentration and inhibition rate plotted on the abscissa and the vertical axis, the curve was fitted using XLFit excel add-in version 4.3.1 software and the IC50 was calculated.

FGFR3 = FGFR3 (Homo sapiens, UniProt P22607); test: FGFR3 kinase activity inhibition (Caliper mobility shift assay); type: biochemical; details: read-out: FGFR kinase activity inhibition (IC50, nM) FGFR3
Method: as §1

SNU-16 tumor cells = test: Inhibition test against SNU-16 tumor cell proliferation (CTG); type: cell-based; details: Homo sapiens, 72 hours drug treatment, CTG readout, read-out: Inhibits of SNU-16 tumor cells proliferation (IC50, nM) SNU-16
Method: 2. Compounds' Inhibition Test Against SNU-16 Tumor Cell Proliferation
SNU-16 cell suspension was adjusted to 5.56×10e4/mL with RPMI 1640 medium. Add 90 μL of cell suspension to 96-well cell culture plates per well for a final cell concentration of 5000 cells/well. The test compound was dissolved in DMSO as a 10 mM stock solution. The 3× series of serial dilutions were prepared with stock and DMSO and then diluted 100-fold with media. Finally, 10 μL of the corresponding 10× solution was added to each well of each cell, and each drug concentration was 2 replicates. The final concentration of each compound was 1000 nM, 333.3 nM, 111.1 nM, 37.04 nM, 12.35 nM, 4.115 nM, 1.372 nM, 0.457 nM, 0.152 nM, the final concentration of DMSO per well is 0.1%. Place in a 37° C., 5% CO2 incubator for 72 hours. After 72 hours of drug treatment, add 50 μL (1/2 culture volume) of CTG solution that has been previously thawed and equilibrated to room temperature per well according to CTG instructions, mix for 2 minutes using a microplate shaker, and allow to stand at room temperature for 10 minutes. The Envision 2104 reader was used to determine the […] signal value. Cell viability formula: Vsample/Vvehicle control×100% for calculation. Wherein Vsample is the reading of the drug treatment group and, Vvehicle control is the average of the solvent control group. Using the GraphPad Prism 5.0 software, a sigmoidal dose-survival curve was plotted using a non-linear regression model and IC50 values were calculated.

FGFR2 = FGFR2 (Homo sapiens, UniProt P21802); test: FGFR2 kinase activity inhibition (Caliper mobility shift assay); type: biochemical; details: read-out: FGFR kinase activity inhibition (IC50, nM) FGFR2
Method: as §1

FGFR4 = FGFR4 (Homo sapiens, UniProt P22455); test: FGFR4 kinase activity inhibition (Caliper mobility shift assay); type: biochemical; details: read-out: FGFR kinase activity inhibition (IC50, nM) FGFR4
Method: as §1

Chain of FGFR4 (P22455 22-802): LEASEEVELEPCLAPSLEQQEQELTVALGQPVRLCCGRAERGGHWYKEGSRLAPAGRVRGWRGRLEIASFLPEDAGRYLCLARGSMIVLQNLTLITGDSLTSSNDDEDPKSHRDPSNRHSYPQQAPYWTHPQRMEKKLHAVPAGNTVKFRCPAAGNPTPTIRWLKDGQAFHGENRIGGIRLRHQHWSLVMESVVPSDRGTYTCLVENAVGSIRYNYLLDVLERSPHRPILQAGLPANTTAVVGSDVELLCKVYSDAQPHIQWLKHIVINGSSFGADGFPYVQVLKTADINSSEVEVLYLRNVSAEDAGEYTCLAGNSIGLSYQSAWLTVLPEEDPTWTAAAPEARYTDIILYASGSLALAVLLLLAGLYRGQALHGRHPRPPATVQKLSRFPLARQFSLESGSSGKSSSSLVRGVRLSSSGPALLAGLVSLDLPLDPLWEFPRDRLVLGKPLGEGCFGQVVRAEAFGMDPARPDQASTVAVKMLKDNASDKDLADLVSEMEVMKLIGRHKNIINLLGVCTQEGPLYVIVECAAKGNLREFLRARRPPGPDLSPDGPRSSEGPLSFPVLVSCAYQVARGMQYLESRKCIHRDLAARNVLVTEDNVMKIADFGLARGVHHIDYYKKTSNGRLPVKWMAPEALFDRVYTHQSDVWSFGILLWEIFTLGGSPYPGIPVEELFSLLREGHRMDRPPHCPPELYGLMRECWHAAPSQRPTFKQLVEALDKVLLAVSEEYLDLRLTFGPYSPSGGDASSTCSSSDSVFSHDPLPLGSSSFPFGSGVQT
Chain of FGFR2 (P21802 22-821): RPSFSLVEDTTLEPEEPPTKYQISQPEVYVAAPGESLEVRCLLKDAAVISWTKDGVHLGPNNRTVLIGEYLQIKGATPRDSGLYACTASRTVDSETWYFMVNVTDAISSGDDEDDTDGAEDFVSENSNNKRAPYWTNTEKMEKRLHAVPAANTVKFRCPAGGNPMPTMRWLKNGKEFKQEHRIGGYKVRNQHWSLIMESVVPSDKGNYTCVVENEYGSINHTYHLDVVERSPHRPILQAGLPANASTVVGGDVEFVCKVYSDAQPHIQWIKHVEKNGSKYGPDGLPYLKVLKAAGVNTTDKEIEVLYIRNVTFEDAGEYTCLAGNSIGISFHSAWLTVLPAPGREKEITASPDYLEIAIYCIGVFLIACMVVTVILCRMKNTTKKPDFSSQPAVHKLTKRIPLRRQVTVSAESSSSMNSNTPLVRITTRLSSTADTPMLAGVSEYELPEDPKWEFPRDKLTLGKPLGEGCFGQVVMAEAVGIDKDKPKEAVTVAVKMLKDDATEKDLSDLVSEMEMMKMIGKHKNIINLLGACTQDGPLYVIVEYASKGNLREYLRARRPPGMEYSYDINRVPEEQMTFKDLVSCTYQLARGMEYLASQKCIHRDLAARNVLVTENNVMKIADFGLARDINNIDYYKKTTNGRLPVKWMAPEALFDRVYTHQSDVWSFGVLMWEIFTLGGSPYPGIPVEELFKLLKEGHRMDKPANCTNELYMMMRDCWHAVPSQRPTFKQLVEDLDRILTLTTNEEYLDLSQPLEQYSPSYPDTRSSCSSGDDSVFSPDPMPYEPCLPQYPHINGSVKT
Chain of FGFR3 (P22607 23-806): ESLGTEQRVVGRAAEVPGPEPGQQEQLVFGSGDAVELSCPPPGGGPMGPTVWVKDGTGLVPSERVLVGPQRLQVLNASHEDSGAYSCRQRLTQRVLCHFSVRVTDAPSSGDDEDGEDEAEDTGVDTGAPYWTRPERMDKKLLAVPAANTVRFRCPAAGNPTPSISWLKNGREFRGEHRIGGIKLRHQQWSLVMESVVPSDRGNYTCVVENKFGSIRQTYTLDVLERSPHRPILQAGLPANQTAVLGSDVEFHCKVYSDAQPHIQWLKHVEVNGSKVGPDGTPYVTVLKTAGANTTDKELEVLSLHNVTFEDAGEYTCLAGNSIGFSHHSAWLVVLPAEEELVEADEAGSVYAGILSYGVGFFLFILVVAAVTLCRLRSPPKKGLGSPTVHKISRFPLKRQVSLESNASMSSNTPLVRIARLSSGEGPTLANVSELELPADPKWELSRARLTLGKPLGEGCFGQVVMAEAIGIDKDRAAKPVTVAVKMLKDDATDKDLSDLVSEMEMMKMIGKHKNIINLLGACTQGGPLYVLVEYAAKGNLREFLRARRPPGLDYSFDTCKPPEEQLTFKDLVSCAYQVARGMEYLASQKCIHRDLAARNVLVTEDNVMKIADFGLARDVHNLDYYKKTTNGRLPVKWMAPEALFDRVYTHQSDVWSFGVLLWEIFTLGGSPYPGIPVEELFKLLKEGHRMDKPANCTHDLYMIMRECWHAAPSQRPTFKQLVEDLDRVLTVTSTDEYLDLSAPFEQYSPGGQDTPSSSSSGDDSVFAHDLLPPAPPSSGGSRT
Chain of FGFR1 (P11362 22-822): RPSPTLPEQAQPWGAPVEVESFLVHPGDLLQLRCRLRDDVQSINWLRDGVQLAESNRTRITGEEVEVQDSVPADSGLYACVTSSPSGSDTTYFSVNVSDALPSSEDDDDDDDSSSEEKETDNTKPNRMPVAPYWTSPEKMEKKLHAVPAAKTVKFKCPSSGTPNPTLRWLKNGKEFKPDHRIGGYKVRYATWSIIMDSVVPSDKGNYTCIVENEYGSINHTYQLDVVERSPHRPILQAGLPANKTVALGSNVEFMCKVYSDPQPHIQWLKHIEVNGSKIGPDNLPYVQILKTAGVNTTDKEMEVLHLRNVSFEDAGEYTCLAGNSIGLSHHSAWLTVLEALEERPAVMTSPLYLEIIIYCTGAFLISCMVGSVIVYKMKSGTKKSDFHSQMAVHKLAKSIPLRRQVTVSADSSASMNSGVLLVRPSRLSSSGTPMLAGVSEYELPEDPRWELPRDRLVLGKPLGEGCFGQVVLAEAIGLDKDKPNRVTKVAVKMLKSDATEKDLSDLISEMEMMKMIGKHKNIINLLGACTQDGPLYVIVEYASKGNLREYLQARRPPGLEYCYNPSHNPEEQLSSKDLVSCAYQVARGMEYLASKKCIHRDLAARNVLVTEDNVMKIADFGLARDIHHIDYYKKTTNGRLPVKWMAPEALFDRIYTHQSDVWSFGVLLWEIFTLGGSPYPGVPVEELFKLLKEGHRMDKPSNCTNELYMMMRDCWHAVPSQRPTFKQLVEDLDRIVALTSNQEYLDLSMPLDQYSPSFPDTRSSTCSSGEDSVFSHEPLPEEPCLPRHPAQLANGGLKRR

Structure (SMILES) | IC50 (FGFR1) | IC50 (FGFR3) | IC50 (SNU-16 tumor cells) | IC50 (FGFR2) | IC50 (FGFR4)
COc1cc(OC)c(Cl)c(NC(=O)N(C)c2cc(Nc3ccc4c(c3)OCCN(C)CCO4)ncn2)c1Cl [Compound 1] | < 20 nM | < 20 nM |  |  | 
COc1cc(OC)c(Cl)c(NC(=O)N(C)c2cc(Nc3ccc4c(c3)OC[C@H]3CN(C)CCN43)ncn2)c1Cl [Compound 2R] | < 10 nM | < 10 nM | < 10 nM | < 10 nM | < 200 nM
COc1cc(OC)c(Cl)c(NC(=O)N(C)c2cc(Nc3ccc4c(c3)OC[C@@H]3CN(C)CCN43)ncn2)c1Cl [Compound 2S] | < 10 nM | < 10 nM | < 10 nM | < 10 nM | < 200 nM
COc1cc(OC)c(Cl)c(NC(=O)N(C)c2cc(Nc3ccc4c(c3)OCC3CN(C)CCN43)ncn2)c1Cl (stereo not shown) [Compound 2] | < 10 nM | < 10 nM |  |  | 
COc1cc(OC)c(Cl)c(NC(=O)N(C)c2cc(Nc3ccc(N4CC5CN(C)CC(C4)C5(F)F)cc3)ncn2)c1Cl [Compound 3] | < 10 nM | < 10 nM | < 10 nM |  | 
CCN1CCN2c3ccc(Nc4cc(N(C)C(=O)Nc5c(Cl)c(OC)cc(OC)c5Cl)ncn4)cc3OC[C@H]2C1 [Compound 4R] | < 10 nM |  |  | < 10 nM | 
CCN1CCN2c3ccc(Nc4cc(N(C)C(=O)Nc5c(Cl)c(OC)cc(OC)c5Cl)ncn4)cc3OC[C@@H]2C1 [Compound 4S] | < 10 nM | < 10 nM | < 10 nM | < 10 nM | < 200 nM
C=CC(=O)Nc1cc2c(cc1Nc1cc(N(C)C(=O)Nc3c(Cl)c(OC)cc(OC)c3Cl)ncn1)OC[C@@H]1CN(C)CCN21 [Compound 5S] | > 1000 nM | > 1000 nM |  | > 1000 nM | < 20 nM
COc1cc(OC)c(Cl)c(NC(=O)N(C)c2cc(Nc3ccc4c(c3)OC[C@H]3CN(C5CC5)CCN43)ncn2)c1Cl [Compound 6R] | < 20 nM |  |  | < 50 nM | 
COc1cc(OC)c(Cl)c(NC(=O)N(C)c2cc(Nc3ccc4c(c3)OC[C@H]3CN(C(C)=O)CCN43)ncn2)c1Cl [Compound 7R] | < 10 nM |  |  | < 10 nM | 
COc1cc(OC)c(Cl)c(NC(=O)N(C)c2cc(Nc3ccc4c(c3)OC[C@H]3COCCN43)ncn2)c1Cl [Compound 8R] | < 20 nM |  |  | < 20 nM | 
COc1cc(OC)c(Cl)c(NC(=O)N(C)c2cc(Nc3ccc4c(c3)OC[C@H]3CN(C)CC(=O)N43)ncn2)c1Cl [Compound 9R] | < 10 nM |  |  | < 10 nM | 
CCS(=O)(=O)N1CCN2c3ccc(Nc4cc(N(C)C(=O)Nc5c(Cl)c(OC)cc(OC)c5Cl)ncn4)cc3OC[C@H]2C1 [Compound 10R] | < 50 nM |  |  | < 50 nM | 
C=CC(=O)Nc1ccc(CN(C(=O)Nc2c(Cl)c(OC)cc(OC)c2Cl)c2cc(Nc3ccc4c(c3)OC[C@@H]3CN(C)CCN43)ncn2)cc1 [Compound 11S] | < 50 nM |  |  |  | < 200 nM
